Laboratory results reported in US10890591B2, “Methods and dose packs for monitoring medication adherence” (Synapse Biosciences, LLC, priority 2016, dated 2021).

Experiments:
[1] = Multiple Marker Experiment 1: saliva samples, marker concentration by LC-MS/MS; details: human, in vivo;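 further: mean across four subjects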
From the text: (§1) All other markers were obtained from commercial sources. Urine and saliva were collected prior to each day's dosing of marker confirming the presence or absence of markers before the experiment started. […] The presence of all 7 markers at day 8 would confirm that all markers were ingested in the previous 7 day one week period.
(§2) Healthy volunteers with no recent exposure to the markers who were not currently taking prescribed medications, OTC medications or vitamins and supplements were chosen. Exposure to the markers more than one month before starting the experiment was allowed and no dietary restrictions were required. Subjects were given a 7 day blister pack with markers sequenced in the order above. Subjects verbally confirmed they understood the urine and saliva collection procedures. Instructions printed on the marker blister pack instructed subjects to collect urine and saliva each morning before they took the daily dose of marker. They were also instructed to take the daily dose of marker close to the same time each day.

[2] = Multiple Marker Experiment 1: urine samples, adherent with all markers, marker concentration by LC-MS/MS; details: for Subject A, Urine Results / Subject B, Urine Results / Subject C, Urine Results / Subject D, Urine Results / Average of Urine Samples / concentration at 8 day: each marker dosed once
From the text: as §1, §2

[3] = Multiple Marker Experiment 2: urine samples, simulated non-adherence (one marker dose skipped per subject), LC-MS/MS; details: for Subject B, Urine Results / Subject C, Urine Results: collected before that day's dose; for Subject B, Urine Results / Subject C, Urine Results / concentration at 8 day: other markers dosed once; for concentration at 8 day: Urine Results, Day 8 sample
[4] = Day 1 sample, collected before that day's dose, Experiment #1, adherent with all markers
[5] = Day 2 sample, collected before that day's dose, Experiment #1, adherent with all markers
[6] = Day 3 sample, collected before that day's dose, Experiment #1, adherent with all markers
[7] = Day 4 sample, collected before that day's dose, Experiment #1, adherent with all markers
[8] = Day 5 sample, collected before that day's dose, Experiment #1, adherent with all markers
[9] = Day 6 sample, collected before that day's dose, Experiment #1, adherent with all markers
[10] = Day 7 sample, collected before that day's dose, Experiment #1, adherent with all markers
[11] = Day 8 sample, Experiment #1, adherent with all markers

SMILES: COc1ccc2c(c1)[C@]13CCCC[C@@H]1[C@H](C2)N(C)CC3 [DXM, Dextromethorphan]
- concentration at 1 day [1]: 0 ng/mL
- concentration at 2 day [1]: 0 ng/mL
- concentration at 3 day [1]: 0 ng/mL
- concentration at 4 day [1]: 8.4 ng/mL
- concentration at 5 day [1]: 1.52 ng/mL
- concentration at 6 day [1]: 0.501 ng/mL
- concentration at 7 day [1]: 0.439 ng/mL
- concentration at 8 day [1]: 0.197 ng/mL
- Subject A, Urine Results [2, 4]: 0 ng/mL
- Subject B, Urine Results [2, 4]: 0 ng/mL
- Subject C, Urine Results [2, 4]: 0 ng/m
- Subject D, Urine Results [2, 4]: 0 ng/m
- Subject A, Urine Results [2, 5]: 0 ng/mL
- Subject B, Urine Results [2, 5]: 0 ng/mL
- Subject C, Urine Results [2, 5]: 0 ng/m
- Subject D, Urine Results [2, 5]: 0 ng/m
- Subject A, Urine Results [2, 6]: 0 ng/mL
- Subject B, Urine Results [2, 6]: 0 ng/mL
- Subject C, Urine Results [2, 6]: 0 ng/m
- Subject D, Urine Results [2, 6]: 0 ng/m
- Subject A, Urine Results [2, 7]: 146 ng/mL
- Subject B, Urine Results [2, 7]: 358 ng/mL
- Subject C, Urine Results [2, 7]: 187 ng/m
- Subject D, Urine Results [2, 7]: 641 ng/m
- Average of Urine Samples ([2]; Day 4 sample, collected before that day's dose, average of subjects A, B, C, D, Experiment 1): 333 ng/mL
- Subject A, Urine Results [2, 8]: 11.7 ng/mL
- Subject B, Urine Results [2, 8]: 31.4 ng/mL
- Subject C, Urine Results [2, 8]: 15 ng/m
- Subject D, Urine Results [2, 8]: 51.8 ng/m
- Average of Urine Samples ([2]; Day 5 sample, collected before that day's dose, average of subjects A, B, C, D, Experiment 1): 27.475 ng/mL
- Subject A, Urine Results [2, 9]: 3.6 ng/mL
- Subject B, Urine Results [2, 9]: 17.8 ng/mL
- Subject C, Urine Results [2, 9]: 4.84 ng/m
- Subject D, Urine Results [2, 9]: 4.53 ng/m
- Average of Urine Samples ([2]; Day 6 sample, collected before that day's dose, average of subjects A, B, C, D, Experiment 1): 7.6925 ng/mL
- Subject A, Urine Results [2, 10]: 0.987 ng/mL
- Subject B, Urine Results [2, 10]: 3.96 ng/mL
- Subject C, Urine Results [2, 10]: 2.12 ng/m
- Subject D, Urine Results [2, 10]: 2.61 ng/m
- Average of Urine Samples ([2]; Day 7 sample, collected before that day's dose, average of subjects A, B, C, D, Experiment 1): 2.419 ng/mL
- Subject C, Urine Results [2, 11]: 0.787 ng/m
- Subject D, Urine Results [2, 11]: 1.26 ng/m
- course of urine levels relative to dosing ([2]; Experiment 1, days 1-8): zero before dosing, peaked the day after dosing and slowly decreased over time
- concentration at 1 day ([2]; human, in vivo): 0 ng/mL
- concentration at 2 day ([2]; human, in vivo): 0 ng/mL
- concentration at 3 day ([2]; human, in vivo): 0 ng/mL
- concentration at 8 day ([2]; human, in vivo, Average of Urine Samples, Day 8 sample, average of subjects A, B, C, D, Experiment 1): 1.49 ng/mL
- concentration at 8 day ([2]; human, in vivo, Subject A, Urine Results, Day 8 sample, Experiment #1, adherent with all markers): 0.341 ng/mL
- concentration at 8 day ([2]; human, in vivo, Subject B, Urine Results, Day 8 sample, Experiment #1, adherent with all markers): 3.56 ng/mL
- Subject B, Urine Results ([3]; Day 1 sample, Experiment #2, subject B skipped diphenhydramine on day 5): 0 ng/mL
- Subject C, Urine Results ([3]; Day 1 sample, Experiment #2, subject C skipped Loperamide on day 2): 0 ng/mL
- Subject B, Urine Results ([3]; Day 2 sample, Experiment #2, subject B skipped diphenhydramine on day 5): 0 ng/mL
- Subject C, Urine Results ([3]; Day 2 sample, Experiment #2, subject C skipped Loperamide on day 2): 0 ng/mL
- Subject B, Urine Results ([3]; Day 3 sample, Experiment #2, subject B skipped diphenhydramine on day 5): 0 ng/mL
- Subject C, Urine Results ([3]; Day 3 sample, Experiment #2, subject C skipped Loperamide on day 2): 0 ng/mL
- Subject B, Urine Results ([3]; Day 4 sample, Experiment #2, subject B skipped diphenhydramine on day 5): 2640 ng/mL
- Subject C, Urine Results ([3]; Day 4 sample, Experiment #2, subject C skipped Loperamide on day 2): 377 ng/mL
- Subject B, Urine Results ([3]; Day 5 sample, Experiment #2, subject B skipped diphenhydramine on day 5): 181 ng/mL
- Subject C, Urine Results ([3]; Day 5 sample, Experiment #2, subject C skipped Loperamide on day 2): 40 ng/mL
- Subject B, Urine Results ([3]; Day 6 sample, Experiment #2, subject B skipped diphenhydramine on day 5): 14.7 ng/mL
- Subject C, Urine Results ([3]; Day 6 sample, Experiment #2, subject C skipped Loperamide on day 2): 1.35 ng/mL
- Subject B, Urine Results ([3]; Day 7 sample, Experiment #2, subject B skipped diphenhydramine on day 5): 16.6 ng/mL
- Subject C, Urine Results ([3]; Day 7 sample, Experiment #2, subject C skipped Loperamide on day 2): 1.11 ng/mL
- course of urine levels relative to dosing ([3]; Experiment 2, days 1-8): zero before dosing, peaked the day after dosing and slowly decreased over time
- concentration at 1 day ([3]; human, in vivo): 0 ng/mL
- concentration at 2 day ([3]; human, in vivo): 0 ng/mL
- concentration at 3 day ([3]; human, in vivo): 0 ng/mL
- concentration at 8 day ([3]; human, in vivo, Subject B, Experiment #2, subject B skipped diphenhydramine on day 5): 2.63 ng/mL
- concentration at 8 day ([3]; human, in vivo, Subject C, Experiment #2, subject C skipped Loperamide on day 2): 0.15 ng/mL
